Results on 2 molecules are retold here after paper PMC5410965 (ACS infectious diseases, 2016).

SMILES strings stand for the structures.

Data set [1] concerns HepG2 human liver carcinoma cell line. Kind of data set: Toxicity to HepG2 cells. As to conditions: concentrations as high as 50 μM.
The subject of data set [2] is National Cancer Institute panel of sixty human cancer cell lines. Kind of data set: National Cancer Institute panel of sixty human cancer cell lines, growth. The format is cell-based. As to conditions: 10 μM; NCI sixty human cancer cell lines.
A further data set deals with Mtb 20S (Mycobacterium tuberculosis, UniProt P9WHT9). As to conditions: second-order rate constant for inhibition; substrate Suc-LLVY-AMC; triplicate.
The next data set relates to Mtb 20S versus human 20S. The conditions noted are these: human 20S over Mtb 20S; cited from earlier work.

Mtb 20S, sequence (P9WHT9 58-291): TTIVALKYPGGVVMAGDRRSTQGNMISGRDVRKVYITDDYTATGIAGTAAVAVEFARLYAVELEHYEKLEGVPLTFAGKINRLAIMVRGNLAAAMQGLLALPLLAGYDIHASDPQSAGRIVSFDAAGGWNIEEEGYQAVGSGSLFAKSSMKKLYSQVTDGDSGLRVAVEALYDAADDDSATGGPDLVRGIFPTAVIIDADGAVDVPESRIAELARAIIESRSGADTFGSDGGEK
Mtb 20S, sequence (P9WHU1 whole entry partner): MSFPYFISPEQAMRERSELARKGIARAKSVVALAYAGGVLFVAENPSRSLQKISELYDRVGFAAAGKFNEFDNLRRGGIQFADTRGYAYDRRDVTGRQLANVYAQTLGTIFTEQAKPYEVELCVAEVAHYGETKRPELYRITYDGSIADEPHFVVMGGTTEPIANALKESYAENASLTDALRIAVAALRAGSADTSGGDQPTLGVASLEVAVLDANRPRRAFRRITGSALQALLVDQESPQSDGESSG

For `COC(=O)[C@@H](NC(=O)N[C@H](C(=O)N[C@H]1CCCCNC(=O)/C=C/[C@H](C(C)C)NC1=O)C(C)C)C(C)C` [Compound 1, syringolin B methyl ester], the “toxicity to HepG2 cells” value in data set [1] is reported as “toxic”. Further, in data set [2], the “mean growth compared to untreated (vehicle) controls” value is reported as 27%. The “Mtb 20S kin/Ki” value on Mtb 20S worked out at 4.60 M⁻¹ s⁻¹.
With `CC(C)C[C@H](NC(=O)[C@H](Cc1ccccc1)NC(=O)c1cnccn1)B(O)O` [bortezomib], in the data set with Mtb 20S versus human 20S, the “preference for reversible inhibition of human 20S” value was 18 fold.
